From USRE38117E1, “Trioxane dimer compound having antiproliferative and antitumor activities” (Hauser, Inc., priority 1995, dated 2003)

Legend:
Format in all cases: cell-based
SK-MEL-2 = experiment: NCI 60 cell line screen (SRB), Melanoma; conditions: SK-MEL-2 (Melanoma)
MOLT-4 = experiment: NCI 60 cell line screen (SRB), Leukemia; conditions: MOLT-4 (Leukemia)
RPMI-8226 = experiment: NCI 60 cell line screen (SRB), Leukemia; conditions: RPMI-8226 (Leukemia)
HOP-92 = experiment: NCI 60 cell line screen (SRB), Non-Small Cell Lung Cancer; conditions: HOP-92 (Non-Small Cell Lung Cancer)
MALME-3M = experiment: NCI 60 cell line screen (SRB), Melanoma; conditions: MALME-3M (Melanoma)
SF-295 = experiment: NCI 60 cell line screen (SRB), CNS Cancer; conditions: SF-295 (CNS Cancer)
A549/ATCC = experiment: NCI 60 cell line screen (SRB), Non-Small Cell Lung Cancer
MCF7/ADR-RES = experiment: NCI 60 cell line screen (SRB), Breast Cancer
HS 578T = experiment: NCI 60 cell line screen (SRB), Breast Cancer; conditions: HS 578T (Breast Cancer)
OVCAR-8 = experiment: NCI 60 cell line screen (SRB), Ovarian Cancer; conditions: OVCAR-8 (Ovarian Cancer)
NCI-H226 = experiment: NCI 60 cell line screen (SRB), Non-Small Cell Lung Cancer
SK-MEL-5 = experiment: NCI 60 cell line screen (SRB), Melanoma; conditions: SK-MEL-5 (Melanoma)
SNB-75 = experiment: NCI 60 cell line screen (SRB), CNS Cancer; conditions: SNB-75 (CNS Cancer)
U251 = experiment: NCI 60 cell line screen (SRB), CNS Cancer
MCF7 = experiment: NCI 60 cell line screen (SRB), Breast Cancer
UO-31 = experiment: NCI 60 cell line screen (SRB), Renal Cancer; conditions: UO-31 (Renal Cancer)
COLO 205 = experiment: NCI 60 cell line screen (SRB), Colon Cancer; conditions: COLO 205 (Colon Cancer)
BT-549 = experiment: NCI 60 cell line screen (SRB), Breast Cancer; conditions: BT-549 (Breast Cancer)
SNB-19 = experiment: NCI 60 cell line screen (SRB), CNS Cancer; conditions: SNB-19 (CNS Cancer)
HCT-116 = experiment: NCI 60 cell line screen (SRB), Colon Cancer; conditions: HCT-116 (Colon Cancer)
NCI-H322M = experiment: NCI 60 cell line screen (SRB), Non-Small Cell Lung Cancer
OVCAR-5 = experiment: NCI 60 cell line screen (SRB), Ovarian Cancer; conditions: OVCAR-5 (Ovarian Cancer)
786-0 = experiment: NCI 60 cell line screen (SRB), Renal Cancer; conditions: 786-0 (Renal Cancer)
MDA-MB231/ATCC = experiment: NCI 60 cell line screen (SRB), Breast Cancer
HCC-2998 = experiment: NCI 60 cell line screen (SRB), Colon Cancer; conditions: HCC-2998 (Colon Cancer)
60 cell line panel = experiment: NCI 60 cell line screen, values over the whole panel; conditions: mean value over the cell line panel
UACC-62 = experiment: NCI 60 cell line screen (SRB), Melanoma; conditions: UACC-62 (Melanoma)
NCI-H460 = experiment: NCI 60 cell line screen (SRB), Non-Small Cell Lung Cancer
EKVX = experiment: as above
OVCAR-3 = experiment: NCI 60 cell line screen (SRB), Ovarian Cancer; conditions: OVCAR-3 (Ovarian Cancer)
M14 = experiment: NCI 60 cell line screen (SRB), Melanoma
SR = experiment: NCI 60 cell line screen (SRB), Leukemia

COC1OC2(C)CCC3CCCC(CCOC(=O)c4ccc(C(=O)OCCC5CCCC6CCC7(C)OOC56C(OC)O7)cc4)C31OO2 (stereo not drawn) [Compound 11, Bis-ester Dimer] gave a Log10GI50 (SK-MEL-2) of −5.47 M, a Log10LC50 (SK-MEL-2) of over −4.00 M and a Log10TGI (SK-MEL-2) of −5.04 M. For the same compound, the Log10GI50 (MOLT-4) was −6.67 M, the Log10LC50 (MOLT-4) was over −4.00 M and the Log10TGI (MOLT-4; listed as Terephtalate Dimer) was −4.70 M. It also gave a Log10TGI (MOLT-4; listed as terephthalate dimer) of 6.20 M, a Log10GI50 (RPMI-8226) of −6.33 M and a Log10LC50 (RPMI-8226) of over −4.00 M. It also gave a Log10TGI (RPMI-8226) of −5.10 M, a Log10GI50 (HOP-92) of −4.91 M and a Log10LC50 (HOP-92) of over −4.00 M. The Log10TGI (HOP-92) was over −4.00 M, the Log10GI50 (MALME-3M) was −5.03 M and the Log10LC50 (MALME-3M) was over −4.00 M. The Log10TGI (MALME-3M) was over −4.00 M, the Log10GI50 (SF-295) was −5.49 M and the Log10LC50 (SF-295) was over −4.00 M. The Log10TGI (SF-295) was over −4.00 M, the Log10GI50 (A549/ATCC) was −5.42 M and the Log10LC50 (A549/ATCC) was over −4.00 M. The Log10TGI (A549/ATCC) was over −4.00 M, the Log10GI50 (MCF7/ADR-RES) was −5.11 M and the Log10LC50 (MCF7/ADR-RES) was over −4.00 M. The Log10TGI (MCF7/ADR-RES) was over −4.00 M, the Log10GI50 (HS 578T) was −4.55 M and the Log10LC50 (HS 578T) was over −4.00 M. The Log10TGI (HS 578T) was over −4.00 M, the Log10GI50 (OVCAR-8) was −6.03 M and the Log10LC50 (OVCAR-8) was over −4.00 M. It also gave a Log10TGI (OVCAR-8) of over −4.00 M, a Log10GI50 (NCI-H226) of −5.26 M and a Log10LC50 (NCI-H226) of over −4.00 M. The Log10TGI (NCI-H226) was over −4.00 M, the Log10GI50 (SK-MEL-5) was −6.00 M and the Log10LC50 (SK-MEL-5) was over −4.00 M. For the same compound, the Log10TGI (SK-MEL-5) was over −4.00 M, the Log10GI50 (SNB-75) was −5.66 M and the Log10LC50 (SNB-75) was over −4.00 M. For the same compound, the Log10GI50 (U251) was −6.02 M, the Log10LC50 (U251) was over −4.00 M and the Log10TGI (U251) was over −4.00 M. The Log10GI50 (MCF7) was −5.86 M, the Log10LC50 (MCF7) was over −4.00 M and the Log10TGI (MCF7) was over −4.00 M. It also gave a Log10GI50 (UO-31) of −5.63 M, a Log10LC50 (UO-31) of over −4.00 M and a Log10TGI (UO-31) of over −4.00 M. It also gave a Log10GI50 (COLO 205) of −6.31 M, a Log10LC50 (COLO 205) of −5.17 M and a Log10TGI (COLO 205) of −5.71 M. The Log10GI50 (BT-549) was −5.44 M, the Log10LC50 (BT-549) was over −4.00 M and the Log10TGI (BT-549) was over −4.00 M. The Log10GI50 (SNB-19) was −5.31 M, the Log10LC50 (SNB-19) was over −4.00 M and the Log10TGI (SNB-19) was over −4.00 M. For the same compound, the Log10GI50 (HCT-116) was −6.30 M, the Log10LC50 (HCT-116) was over −4.00 M and the Log10TGI (HCT-116) was over −4.00 M. For the same compound, the Log10GI50 (NCI-H322M) was −4.69 M, the Log10LC50 (NCI-H322M) was over −4.00 M and the Log10TGI (NCI-H322M) was over −4.00 M. It also gave a Log10GI50 (OVCAR-5) of −5.45 M, a Log10LC50 (OVCAR-5) of over −4.00 M and a Log10TGI (OVCAR-5) of over −4.00 M. For the same compound, the Log10GI50 (786-0) was −5.41 M, the Log10LC50 (786-0) was over −4.00 M and the Log10TGI (786-0) was over −4.00 M. For the same compound, the Log10GI50 (MDA-MB231/ATCC) was −5.18 M, the Log10LC50 (MDA-MB231/ATCC) was over −4.00 M and the Log10TGI (MDA-MB231/ATCC) was over −4.00 M. The Log10GI50 (HCC-2998) was −4.56 M, the Log10LC50 (HCC-2998) was over −4.00 M and the Log10TGI (HCC-2998) was over −4.00 M. For the same compound, the “Log10GI50 MG MID” value (60 cell line panel) was −5.59 M, the “Log10LC50 MG MID” value (60 cell line panel) was −4.04 M and the “Log10TGI MG MID” value (60 cell line panel) was −4.19 M. For the same compound, the Log10GI50 (UACC-62) was −5.87 M, the Log10LC50 (UACC-62) was over −4.00 M and the Log10TGI (UACC-62) was over −4.00 M. It also gave a Log10GI50 (NCI-H460) of −6.02 M, a Log10LC50 (NCI-H460) of over −4.00 M and a Log10TGI (NCI-H460) of over −4.00 M. For the same compound, the Log10GI50 (EKVX) was −5.20 M, the Log10LC50 (EKVX) was over −4.00 M and the Log10TGI (EKVX) was over −4.00 M. The Log10GI50 (OVCAR-3) was −5.63 M, the Log10LC50 (OVCAR-3) was over −4.00 M and the Log10TGI (OVCAR-3) was over −4.00 M. The Log10GI50 (M14) was −5.20 M, the Log10LC50 (M14) was over −4.00 M and the Log10TGI (M14) was over −4.00 M. It also gave a Log10GI50 (SR) of −6.38 M, a Log10LC50 (SR) of over −4.00 M and a Log10TGI (SR) of −5.17 M.
